Results reported in patent publication USRE48097E1, “Cephem compounds, their production and use” (priority 2015, dated 2020).
≈ marks a conversion by molar mass, not a printed value.

Key:
Type in all cases: cell-based
[1] = system: S. pneumoniae 2407; experiment: MIC against S. pneumoniae 2407; settings: Table 2, S. pneumoniae 2407, Pen S
Text: (§1) Without limitation, the present cephem compounds alone, or in combination with one or more β-lactamase inhibitors, may provide improved antibacterial efficacy, particularly in antibiotic-resistant bacterial strains. It is believed that the present compounds may be structurally different from known compounds and, as a result, may be more basic in nature. It is an advantage that the present compounds may extend the spectrum of effective bacterial compounds, particularly against previously-resistant bacteria (e.g. ESKAPE organisms), and/or gram negative bacteria, without significant side effects. In a preferred embodiment, the present cephem compound may comprise reference compound ceftazidime, which may be used alone, or in combination with one or more β-lactamase inhibitors, such as NXL-104. As shown, the foregoing composition was tested for minimum inhibitory concentration (MIC, μg/mL) against bacteria listed in Tables 2-3.

[2] = system: S. pneumoniae 2405; experiment: MIC against S. pneumoniae 2405; settings: Table 2, S. pneumoniae 2405, Pen S
Text: as §1

[3] = system: K. pneumoniae 2713; experiment: MIC against K. pneumoniae 2713; settings: Table 3, K. pneumoniae 2713, KPC-3, VIM-1
Description: (§2) As shown, the foregoing composition was tested for minimum inhibitory concentration (MIC, μg/mL) against bacteria listed in Tables 2-3.

[4] = system: E. cloacae 2705; experiment: MIC against E. cloacae 2705; settings: Table 3, E. cloacae 2705, VIM-1, KPC-3type
Description: as §2

[5] = system: K. baumanii 4095; experiment: MIC against K. baumanii 4095; settings: Table 2, K. baumanii 4095, OXA-48
Text: as §1

[6] = system: K. pneumoniae 4106; experiment: MIC against K. pneumoniae 4106; settings: K. pneumoniae 4106, KPC-3, TEM-1, SHV-12, SHV-141
Description: as §2

[7] = system: K. baumanii 4091; experiment: MIC against K. baumanii 4091; settings: Table 2, K. baumanii 4091, OXA-23
Text: as §1

[8] = system: E. coli 4080; experiment: MIC against E. coli 4080; settings: Table 2, E. coli 4080, TEM-10
Text: as §1

[9] = system: E. cloacae 2710; experiment: MIC against E. cloacae 2710; settings: Table 3, E. cloacae 2710, KPC-3, VIM-1
Description: as §2

[10] = system: S. aureus 3132; experiment: MIC against S. aureus 3132; settings: Table 2, S. aureus 3132, MSSA
Text: as §1

[11] = system: E. cloacae 2709; experiment: MIC against E. cloacae 2709; settings: Table 3, E. cloacae 2709, KPC-3, VIM-1
Description: as §2

[12] = system: K. pneumoniae 2690; experiment: MIC against K. pneumoniae 2690; settings: Table 3, K. pneumoniae 2690, KPC-2
Description: as §2

[13] = system: P. aeruginosa 2686; experiment: MIC against P. aeruginosa 2686; settings: Table 3, P. aeruginosa 2686, KPC-2
Description: as §2

[14] = system: K. pneumoniae 4109; experiment: MIC against K. pneumoniae 4109; settings: Table 2, K. pneumoniae 4109, SHV-1, SHV-12
Text: as §1

[15] = system: K. baumanii 4094; experiment: MIC against K. baumanii 4094; settings: Table 2, K. baumanii 4094, OXA-51
Text: as §1

[16] = system: E. coli 4101; experiment: MIC against E. coli 4101; settings: Table 2, E. coli 4101, CTX-M-14, TEM-1
Text: as §1

[17] = system: E. cloacae 566; experiment: MIC against E. cloacae 566; settings: Table 2, E. cloacae 566, Caz R, IMP S
Text: as §1

[18] = system: K. pneumoniae 4105; experiment: MIC against K. pneumoniae 4105; settings: K. pneumoniae 4105, KPC-3, TEM-1, SHV-11
Description: as §2

[19] = system: E. coli 2666; experiment: MIC against E. coli 2666; settings: Table 3, E. coli 2666, KPC-2
Description: as §2

[20] = system: K. pneumoniae 2711; experiment: MIC against K. pneumoniae 2711; settings: Table 3, K. pneumoniae 2711, KPC-3, VIM-1
Description: as §2

[21] = system: E. cloacae 2704; experiment: MIC against E. cloacae 2704; settings: Table 2, E. cloacae 2704, P99
Text: as §1

[22] = system: E. cloacae 552; experiment: MIC against E. cloacae 552; settings: Table 2, E. cloacae 552, Caz S, IMP S
Text: as §1

[23] = system: K. pneumoniae 4108; experiment: MIC against K. pneumoniae 4108; settings: K. pneumoniae 4108, KPC-3, TEM-166, SHV-12, SHV-141
Description: as §2

[24] = Table 2, in combination with NXL-104
[25] = Table 3, in combination with NXL-104

Q: Which MIC ([1]; alone) does the source give for `CC(C)(O/N=C(\C(=O)N[C@@H]1C(=O)N2C(C(=O)[O-])=C(C[n+]3ccccc3)CS[C@H]12)c1csc(N)n1)C(=O)O` [CAZ, ceftazidime, reference compound] here?
A: Its MIC is 4.00 µg/mL.

Q: What about the MIC ([1]; in combination with NXL-104) of the same molecule?
A: Its MIC is 32.00 µg/mL.

Q: What about the MIC ([2]; alone) of the same molecule?
A: Its MIC is 0.25 µg/mL.

Q: And the MIC ([2]; in combination with NXL-104)?
A: Its MIC is 0.25 µg/mL.

Q: And the MIC ([3]; alone)?
A: Its MIC is over 32 µg/mL.

Q: What about the MIC ([3]; in combination with NXL-104) of the same molecule?
A: The MIC was 8 µg/mL.

Q: And the MIC ([4]; alone)?
A: Its MIC is over 32 µg/mL.

Q: What about the MIC ([4]; in combination with NXL-104) of the same molecule?
A: Its MIC is over 32 µg/mL.

Q: And the MIC ([5]; alone)?
A: The MIC was 0.50 µg/mL.

Q: What about the MIC ([5]; in combination with NXL-104) of the same molecule?
A: Its MIC is 0.50 µg/mL.

Q: And the MIC ([6]; Table 2, alone)?
A: Its MIC is 16.00 µg/mL (≈ 29.3 µM).

Q: What about the MIC [6, 24] of the same molecule?
A: Its MIC is 4.00 µg/mL.

Q: And the MIC ([6]; Table 3, alone)?
A: Its MIC is over 32 µg/mL.

Q: And the MIC [6, 25]?
A: The MIC was 8 µg/mL.

Q: What about the MIC ([7]; alone) of the same molecule?
A: Its MIC is over 32 µg/mL.

Q: And the MIC ([7]; in combination with NXL-104)?
A: The MIC was 16.00 µg/mL.

Q: And the MIC ([8]; alone)?
A: The MIC was 16.00 µg/mL.

Q: What about the MIC ([8]; in combination with NXL-104) of the same molecule?
A: The MIC was 4.00 µg/mL.

Q: What about the MIC ([9]; alone) of the same molecule?
A: Its MIC is over 32 µg/mL.

Q: What about the MIC ([9]; in combination with NXL-104) of the same molecule?
A: The MIC was over 32 µg/mL.

Q: What about the MIC ([10]; alone) of the same molecule?
A: The MIC was 8.00 µg/mL.

Q: And the MIC ([10]; in combination with NXL-104)?
A: The MIC was 8.00 µg/mL.

Q: And the MIC ([11]; alone)?
A: Its MIC is over 32 µg/mL.

Q: What about the MIC ([11]; in combination with NXL-104) of the same molecule?
A: Its MIC is 8 µg/mL.

Q: And the MIC ([12]; alone)?
A: Its MIC is over 32 µg/mL.

Q: What about the MIC ([12]; in combination with NXL-104) of the same molecule?
A: Its MIC is 4 µg/mL.

Q: And the MIC ([13]; alone)?
A: Its MIC is over 32 µg/mL.

Q: And the MIC ([13]; in combination with NXL-104)?
A: Its MIC is 16 µg/mL.

Q: What about the MIC ([14]; alone) of the same molecule?
A: The MIC was 2.00 µg/mL.

Q: What about the MIC ([14]; in combination with NXL-104) of the same molecule?
A: Its MIC is 0.50 µg/mL.

Q: What about the MIC ([15]; alone) of the same molecule?
A: The MIC was over 32 µg/mL.

Q: What about the MIC ([15]; in combination with NXL-104) of the same molecule?
A: Its MIC is 32.00 µg/mL.

Q: What about the MIC ([16]; alone) of the same molecule?
A: Its MIC is 0.50 µg/mL.

Q: And the MIC ([16]; in combination with NXL-104)?
A: Its MIC is 0.25 µg/mL.

Q: And the MIC ([17]; alone)?
A: Its MIC is over 32 µg/mL.

Q: What about the MIC ([17]; in combination with NXL-104) of the same molecule?
A: The MIC was 2.00 µg/mL.

Q: And the MIC ([18]; Table 2, alone)?
A: The MIC was 32.00 µg/mL (≈ 58.5 µM).

Q: What about the MIC [18, 24] of the same molecule?
A: Its MIC is 4.00 µg/mL.

Q: What about the MIC ([18]; Table 3, alone) of the same molecule?
A: The MIC was over 32 µg/mL.

Q: And the MIC [18, 25]?
A: Its MIC is 4 µg/mL.

Q: And the MIC ([19]; alone)?
A: Its MIC is over 32 µg/mL.

Q: What about the MIC ([19]; in combination with NXL-104) of the same molecule?
A: The MIC was 4 µg/mL.

Q: What about the MIC ([20]; alone) of the same molecule?
A: Its MIC is over 32 µg/mL.

Q: What about the MIC ([20]; in combination with NXL-104) of the same molecule?
A: The MIC was 2 µg/mL.

Q: What about the MIC ([21]; alone) of the same molecule?
A: Its MIC is 16.00 µg/mL.

Q: And the MIC ([21]; in combination with NXL-104)?
A: The MIC was 4.00 µg/mL.

Q: What about the MIC ([22]; alone) of the same molecule?
A: The MIC was 0.50 µg/mL.

Q: And the MIC ([22]; in combination with NXL-104)?
A: Its MIC is 0.25 µg/mL.

Q: And the MIC ([23]; Table 2, alone)?
A: The MIC was 16.00 µg/mL (≈ 29.3 µM).

Q: And the MIC [23, 24]?
A: Its MIC is 4.00 µg/mL.

Q: What about the MIC ([23]; Table 3, alone) of the same molecule?
A: Its MIC is over 32 µg/mL.

Q: And the MIC [23, 25]?
A: Its MIC is 4 µg/mL.
